We go through three molecules from patent US7759384B2, “Carvedilol phosphate salts and/or solvates thereof, corresponding compositions, and/or methods of treatment” (SmithKline Beecham (Cork) Limited, priority 2002, dated 2010).

The conditions of series [1]: cited from earlier work.
A short description of series [2]: aqueous solubility of carvedilol phosphate salts compared with free base and other salts. The class given is physicochemical. The settings on record: novel crystalline forms.

Structures are written as SMILES. Read-outs that look alike come from different tables or passages of the source.

Consider `COc1ccccc1OCCNCC(O)COc1cccc2[nH]c3ccccc3c12` (racemic) [Carvedilol], for which the solubility in series [1] (neutral or alkaline media, above a pH of 9.0) is below 1 µg/mL. The saturation solubility entry in series [1] (pH=5, room temperature) is “about 100 μg/mL”; in series [1] (pH=7, room temperature) it was “about 23 μg/mL”.

On to `COc1ccccc1OCCNCC(O)COc1cccc2[nH]c3ccccc3c12.O=P(O)(O)O` (centres unmarked) [carvedilol dihydrogen phosphate], for which the “solubility compared to the free base of carvedilol” value in series [2] is on record as “much higher solubility”.

`COc1ccccc1OCCNCC(O)COc1cccc2[nH]c3ccccc3c12.Cl` (centres unmarked) [hydrochloride salt of carvedilol]: the “solubility in acidic medium” value in series [1] (salt generated in situ in acidic medium, which simulates gastric fluid) is recorded as “less soluble”.

The solubility is the concentration that dissolves in the medium under given conditions.
